pKi: −log10 of the molar value.
How the values were obtained:
Type in all cases: biochemical
Thrombin (human) = target: T1, Thrombin (human) (Homo sapiens, UniProt P00734); assay: Determination of selectivity: thrombin chromogenic assay (GPR substrate); conditions: fold selectivity for FXIIa over thrombin; thrombin 5 nM, GPR 250 μM
T1 construct: FXa (5 nM) and thrombin (5 nM)
Method: (§1) The activities of the compounds of the invention have been determined in vitro using the following assays protocols for the screening of activity of FXIa and other proteases. Each of these assays were performed in a purified system employing the use of chromogenic assays in microplate plate wells. Chromogenic peptide substrates mimicking natural protein substrates are attached via an amide bond to a chromogenic group. Paranitroaniline (pNA) is released from the peptide following catalyses by the proteolytic enzyme; the absorbance increases and can be monitored at 405 nm.
(§2) All compounds were dissolved in 100% (v/v) DMSO to a stock concentration of 10 mM, the highest concentration of compound used in each assay is 500 μM. The final concentrations of DMSO were 5% (v/v) in 50 mM Tris 137 mM NaCl pH 7.4. Where no test compound was added a final concentration of 5% DMSO was employed.
(§3) To determine selectivity of test compounds, these test compounds were assayed for inhibitory activity against other serine proteases including FXa and thrombin. Essentially compounds at increasing concentrations were incubated with each enzyme: FXa (5 nM) and thrombin (5 nM), for 10 mins at 37° C. followed the appropriate chromogenic substrate, S2765 (350 μM), and GPR (250 μM) respectively in 50 mM Tris, 137 mM NaCl, pH 7.4. Chromogenic substrates S2765 was from Chromogenix, and GPR from Bachem. Kinetic readings at 405 nm were monitored every 12 secs for a total duration of 3 hours at 37° C. Gradients of initial rates were determined and employed to calculate IC50 values. Values of IC50 were converted to Ki values based on the formula:
(§4) Ki=IC50/(1+[Substrate]/Km)
(§5) Where [Substrate] denotes the concentration of substrate used in the assay and Km is the determined value of each enzyme with its own substrate.
The fold selectivity for FXIIa over thrombin for the compounds of the invention has been categorised based on the fold selectivity values, the categories being “+”, “++” and “+++”. The category “+” refers to fold selectivity values less than 10. The category “++” refers to a fold selectivity value of 10 to 100. The category “+++” refers to fold selectivity values greater than 100.

FXIIa alpha (Human) = target: T2, FXIIa alpha (Human) (Homo sapiens, UniProt P00748); assay: Determination of Factor XIIa inhibition, chromogenic substrate S-2302; conditions: 10 nM FXIIa, 450 μM S-2302, 37° C., pH 7.4; Ki converted from IC50
T2 construct: FXIIa alpha
T2 sequence (P00748 373-615 limits assumed): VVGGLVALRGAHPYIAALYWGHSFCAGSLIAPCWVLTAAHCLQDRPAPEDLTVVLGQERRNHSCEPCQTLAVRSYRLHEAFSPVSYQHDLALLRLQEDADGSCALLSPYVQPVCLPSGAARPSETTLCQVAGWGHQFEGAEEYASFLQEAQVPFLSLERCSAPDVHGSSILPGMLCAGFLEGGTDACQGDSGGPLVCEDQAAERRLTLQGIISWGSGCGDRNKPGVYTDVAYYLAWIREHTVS
T2 sequence (P00748 20-372 partner limits assumed): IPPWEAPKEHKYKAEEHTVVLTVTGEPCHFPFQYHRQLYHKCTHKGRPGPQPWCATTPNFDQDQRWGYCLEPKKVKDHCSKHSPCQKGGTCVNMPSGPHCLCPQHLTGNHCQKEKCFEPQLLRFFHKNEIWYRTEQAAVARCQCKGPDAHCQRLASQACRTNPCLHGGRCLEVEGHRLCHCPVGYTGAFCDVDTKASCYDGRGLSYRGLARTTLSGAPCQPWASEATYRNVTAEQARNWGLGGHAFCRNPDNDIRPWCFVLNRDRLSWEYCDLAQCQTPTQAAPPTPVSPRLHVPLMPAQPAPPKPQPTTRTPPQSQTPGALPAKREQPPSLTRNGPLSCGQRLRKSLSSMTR
Method: as §1, §2
Factor XIa activity was measured using a chromogenic substrate S-2302 (Chromogenix). Various concentrations of compound were incubated with 10 nM of FXIIa and incubated at 37° C. for 10 minutes in 50 mM Tris, 137 mM NaCl, pH 7.4, prior to the addition of a final concentration of 450 μM S-2302 chromogenic substrate. Kinetic readings at 405 nm were monitored every 12 secs for a total duration of 3 hours at 37° C. Gradients of initial rates were determined and employed to calculate IC50 values. Values of IC50 were converted to Ki values based on the formula:
as §4
The activity of the compounds of the invention has been categorised based on the Ki values, the categories being “*”, “**” and “***”. […] The category refers to compounds with a Ki value of 0.2 μM to 2 μM.

FXa (human) = FXa (human) (Homo sapiens, UniProt P00742); assay: Determination of selectivity: FXa chromogenic assay (S2765 substrate); conditions: fold selectivity for FXIIa over FXa; FXa 5 nM, S2765 350 μM
Chain of FXa (human) (P00742 235-488 limits assumed): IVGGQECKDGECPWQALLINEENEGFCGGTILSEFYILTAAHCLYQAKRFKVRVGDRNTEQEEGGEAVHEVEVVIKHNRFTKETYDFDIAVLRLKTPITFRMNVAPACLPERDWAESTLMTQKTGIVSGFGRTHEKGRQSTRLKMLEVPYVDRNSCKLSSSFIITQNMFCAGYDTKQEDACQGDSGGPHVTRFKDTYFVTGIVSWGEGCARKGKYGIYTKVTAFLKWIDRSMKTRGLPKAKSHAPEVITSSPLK
Chain of FXa (human) (P00742 41-179 partner limits assumed): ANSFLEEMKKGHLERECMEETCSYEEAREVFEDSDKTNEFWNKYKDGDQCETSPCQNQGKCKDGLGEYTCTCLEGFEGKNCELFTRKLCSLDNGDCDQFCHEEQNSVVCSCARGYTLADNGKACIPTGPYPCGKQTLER
Method: as §1, §2, §3, §4, §5
The fold selectivity for FXIIa over FXa for the compounds of the invention has been categorised based on the fold selectivity values, the categories being “o”, “oo” and “ooo”. The category “o” refers to fold selectivity values less than 10. The category “oo” refers to a fold selectivity value of 10 to 100. The category “ooo” refers to fold selectivity values greater than 100.

Row | SMILES | pKi (FXIIa alpha (Human)) | Thrombin (human)/FXIIa alpha (human) fold selectivity (Thrombin (human)) | FXa (human)/FXIIa alpha (human) fold selectivity (FXa (human))
1 | Nc1cc(CNC(=O)[C@@H]2CN(C(=O)OCc3ccccc3)CCN2C(=O)[C@H](N)CCC(=O)N2CCCC2)ccn1 [Compound M05209] | 5.70 to 6.70 | +++ (fold selectivity values greater than 100) | oo (a fold selectivity value of 10 to 100)
2 | Nc1noc2cc(CNC(=O)[C@@H]3CN(C(=O)OCc4ccccc4)CCN3C(=O)[C@H](N)CCc3ccccc3)ccc12 [Compound M05124] | < 5.70 | + (fold selectivity values less than 10) | oo (a fold selectivity value of 10 to 100)
3 | Cn1nnc2cc(CNC(=O)[C@@H]3CN(C(=O)Oc4ccc(Cl)cc4)CCN3C(=O)[C@H](N)CCc3ccccc3)ccc21 [Compound M00933] | < 5.70 | ++ (a fold selectivity value of 10 to 100) | oo (a fold selectivity value of 10 to 100)
4 | NCc1ccc(CNC(=O)[C@@H]2CN(C(=O)OCc3ccccc3)CCN2C(=O)[C@H](N)CCc2ccccc2)cc1 [Compound M05086] | < 5.70 | ++ (a fold selectivity value of 10 to 100) | oo (a fold selectivity value of 10 to 100)
5 | Cn1nnc2cc(CNC(=O)[C@@H]3CN(C(=O)OCc4ccccc4)CCN3C(=O)[C@H](N)CCc3ccccc3)ccc21 [Compound M05098, (S)-4-((R)-2-Amino-4-phenyl-butyryl)-3-[(1-methyl-1H-benzotriazol-5-ylmethyl)-carbamoyl]-piperazine-1-carboxylic acid benzyl ester] | < 5.70 | ++ (a fold selectivity value of 10 to 100) | oo (a fold selectivity value of 10 to 100)
6 | Cc1ccc(OC(=O)N2CCN(C(=O)[C@H](N)CCc3ccccc3)[C@H](C(=O)NCc3ccc4c(c3)nnn4C)C2)cc1 [Compound M00934] | < 5.70 | ++ (a fold selectivity value of 10 to 100) | oo (a fold selectivity value of 10 to 100)
7 | Cn1nnc2cc(CNC(=O)[C@@H]3CC(Oc4ncccn4)CCN3C(=O)[C@H](N)CCC(=O)N3CCCC3)ccc21 (stereo partly drawn) [Compound M05252] | < 5.70 | ++ (a fold selectivity value of 10 to 100) | oo (a fold selectivity value of 10 to 100)
8 | O=C(NCc1cc2ccncc2[nH]1)[C@@H]1CN(C(=O)OCc2ccccc2)CCN1C(=O)[C@H]1C[C@@H](c2ccccc2)CN1 [Compound M00950] | 5.70 to 6.70 | ++ (a fold selectivity value of 10 to 100) | oo (a fold selectivity value of 10 to 100)
9 | Nc1cc(CNC(=O)[C@@H]2CN(C(=O)OCc3ccccc3)CCN2C(=O)[C@H](N)CCc2ccccc2)ccn1 [Compound M00832] | < 5.70 | ++ (a fold selectivity value of 10 to 100) | oo (a fold selectivity value of 10 to 100)
10 | COc1cc(CNC(=O)[C@@H]2CN(C(=O)OCc3ccccc3)CCN2C(=O)[C@H](N)CCc2ccccc2)ccc1CN [Compound M00834] | > 6.70 | +++ (fold selectivity values greater than 100) | ooo (fold selectivity values greater than 100)

Further lines, with some results ahead:

Row | pKi (FXIIa alpha (Human)) | SMILES | Thrombin (human)/FXIIa alpha (human) fold selectivity (Thrombin (human)) | FXa (human)/FXIIa alpha (human) fold selectivity (FXa (human))
11 | > 6.70 | N[C@H](CCC(=O)N1CCCC1)C(=O)N1CCN(C(=O)OCc2ccccc2)C[C@H]1C(=O)NCc1cc2cnccc2[nH]1 [Compound M00971] | +++ (fold selectivity values greater than 100) | ooo (fold selectivity values greater than 100)
12 | < 5.70 | Cn1nnc2cc(CNC(=O)[C@@H]3C[C@H](c4ccccc4)CCN3C(=O)[C@H](N)CCC(=O)N3CCCC3)ccc21 [Compound M05385] | ++ (a fold selectivity value of 10 to 100) | oo (a fold selectivity value of 10 to 100)
13 | < 5.70 | CN(C)[C@H](CCC(=O)N1CCCC1)C(=O)N1CCN(C(=O)OCc2ccccc2)C[C@H]1C(=O)NCc1ccc2[nH]cnc2c1 [Compound M05217] | ++ (a fold selectivity value of 10 to 100) | oo (a fold selectivity value of 10 to 100)
14 | < 5.70 | Cn1nnc2cc(CNC(=O)[C@@H]3CN(C(=O)OCc4ccccc4)CCN3C(=O)[C@H](N)CCC(=O)N3CCCC3)ccc21 [Compound M05212] | +++ (fold selectivity values greater than 100) | ooo (fold selectivity values greater than 100)
15 | < 5.70 | Cn1nnc2cc(CNC(=O)[C@@H]3C[C@@H](c4ccccc4)CCN3C(=O)[C@H](N)CCC(=O)N3CCCC3)ccc21 [Compound M05375] | ++ (a fold selectivity value of 10 to 100) | oo (a fold selectivity value of 10 to 100)
16 | 5.70 to 6.70 | N=C(N)c1ccc(CNC(=O)C2CCCCN2C(=O)C(CCc2ccccc2)NS(=O)(=O)Cc2ccccc2)cc1 (stereo not drawn) [Compound M00556] | + (fold selectivity values less than 10) | o (fold selectivity values less than 10)
17 | 5.70 to 6.70 | N[C@H](CCC(=O)N1CCCC1)C(=O)N1CCN(C(=O)OCc2ccccc2)C[C@H]1C(=O)NCc1cc2ccncc2[nH]1 [Compound M00951] | ++ (a fold selectivity value of 10 to 100) | oo (a fold selectivity value of 10 to 100)
